Where “and” joins values, the source holds several entries; their conditions need not be identical. Equal entries are not always repeated.
Assays:
Type in all cases: cell-based, human
[1] = test system: AML blasts; assay: Nitroblue tetrazolium (NBT) reduction test
Description: (§1) AML blast treatment with HA. Cell suspensions containing more than 95% AML blasts were deposited in triplicate at a rate of 2.105 cells per ml of RPMI 1640/10% FCS in tissue culture plates (Costar Corp., Cambridge, Mass.) with 96 wells each containing 150 μl of medium, and placed in incubation for 5 days in the presence of 20 μg/ml of hyaluronic acid (hHA, HA-6 or HA-12). HA was added at the specified concentrations and chondroitin sulphate was added to the negative controls. The plates were placed in an incubator at 37° C. in a humid atmosphere for […], and the cells underwent the differentiation studies as described below.
Nitroblue tetrazolium (NBT) reduction test: The ability to reduce NBT was measured using conventional techniques. Briefly, 2.10^5 cells were suspended in 900 μl of RPMI 1640 medium and were incubated in the presence of 0.2 μg/ml of 12-O-tetradecanoylephorbol-13-acetate (TPA, Sigma) and 0.5 mg/ml of NBT (Sigma) for 30 minutes at 37° C. The reaction was stopped at 4° C., the cells were cytocentrifuged and subjected to May-Grünwald-Giemsa staining agent. The percentage of cells containing black NBT reduction deposits was determined in duplicate, under an optical microscope, after examining 300 cells.

[2] = test system: AML blasts; assay: Trypan blue exclusion test; conditions: genistein then HA
Description: (§2) Tyrosine phosphorylation inhibition with genistein: 2.10^5 AML blasts, suspended in 200 μl of RPMI 1640/10% FCS medium, were incubated in the presence of 50 nM/l of genistein (Calbiochem-Novabiochem, San Diego, Calif.) for 1 hour at 37° C., and then in the presence of HA for either one hour (for studies on cytokine transcript expression), or five days (for studies on differentiation).

[3] = test system: AML blasts; assay: Tyrosine phosphorylation inhibition with genistein, effect on HA-induced differentiation; conditions: genistein 1 hour, then HA five days
Description: as §2

[4] = test system: AML blasts; assay: Flow cytometry analysis of CD14 and CD15 expression
Description: as §1
Flow cytometry analysis of CD14 and CD15 expression: the AML blasts were suspended at a rate of 10^5 blasts/ml of RPMI 1640 medium containing 0.02% bovine serum albumin and 0.02% […] NaN3, and were then incubated at 4° C. for 30 minutes in the presence of mAbs conjugated with fluorescein isothiocyanate (FITC), and directed against CD14 (5 μg/ml IgG2b, Coulter Immunology, Hialeah, Fla.) or directed against CD15 (1 μg/ml IgM, Becton Dickinson, San José, Calif.). The mAbs were used at saturation concentrations. The murine IgM and IgG2b conjugated with FITC were obtained from Coulter-Immunotech (Coulter-Immunotech Inc., Westbrook, Me.), and were used at a 1:50 dilution. The bonding of the mAbs directed against CD14 and CD15 was quantified by measuring, by flow cytometry, the cell fluorescence in relation to that of cells labelled with the IgG-FITC. The measurement was made using a FACSvantage (Becton Dickinson) equipped with an INNOVA70-4 argon ion laser (Coherent Radiation, Palo Alto, Calif.) set at 488 nm and operating at 500 mW. The flow cytometer was calibrated using fluorescent beads (Becton Dickinson). This measurement was made on 3000 cells.

[5] = test system: intracellular tyrosine phosphorylations in AML blasts; assay: Protein phosphorylation analysis on tyrosine residue; conditions: AML5 blasts, 6D12-FITC flow cytometry
Description: Protein phosphorylation induction on tyrosine residue: HA-12 (50 μg/ml) was added at the time t=0 to 2.10^5 AML blasts suspended, at ambient temperature, in 200 μl of RPMI 1640 medium containing 10% FCS. At t=1 min, 5 min, 15 min and 30 min, 200 μl of Permeafix Ortho (Coulter-Immunotech Inc., Westbrook, Me.) was added to stop the phosphorylations and permeabilise the cells. After 40 minutes of incubation at ambient temperature, and three washes in PBS, the phosphorylated proteins on the tyrosine residue were labelled specifically with 6D12 mAb (used at 2 μg/ml conjugated with FITC, and the labelling intensity was measured by flow cytometry with reference to the isotype control (cells labelled with IgG1 conjugated with FITC), as described above.

[6] = test system: M-CSF transcripts; assay: RT-PCR cytokine transcript expression study; conditions: out of 3 cases, 1 hour after HA treatment
Description: RT-PCR cytokine transcript expression study: the total RNA was extracted from 5.10^5 cells using Trizol reagent (Life Technologies, Cergy Pontoise, France), followed by a phenolchloroform extraction and isopropanol precipitation. One microgram of total RNA heated at 70° C. for 10 minutes was used as a matrix for the synthesis of the first strand of complementary DNA (cDNA), by adding reverse transcriptase and random hexamers (Life Technologies). The transcript of the glyceraldehyde phosphodehydrogenase (GADPH) housekeeping gene was used as an internal marker for the PCR reaction (0.24 kb amplification product). Equilibrated quantities of cDNA were used for the PCR amplification of the cytokine transcripts, the primers used for PCR were as follows: […]
The PCR protocol consisted of 30 cycles of 94° C. for 1 minute, 58° C. for 1 minute and 72° C. for 1 minutes, using a thermocycler (Perkin Elmercetus, Norwalk, Conn.) For each experiment, two negative controls were subject to all the steps.

[7] = test system: AML blasts; assay: AML blast differentiation induced by HA or anti-CD44 mAbs (NBT, CD14/CD15, cytology criteria)
Description: Leukaemic peripheral blood or bone marrow samples were taken at the time of diagnosis, after informed consent, from 36 patients suffering from acute myeloid leukaemia (AML). The diagnosis of the disease and its classification comply with French-American-British (FAB) classification criteria.
Fresh or frozen AML cells were enriched by centrifugation according to the density gradient in the presence of Ficoll, and washed in RPMI 1640 medium containing 10% foetal calf serum (FCS). The frozen cells were thawed at ambient temperature in RPMI 1640 medium containing 50% FCS, and then washed twice in RPMI medium supplemented with 10% FCS. B and T lymphocytes were eliminated from all the samples, along with monocytes for the AML1/2 and AML3 samples. This elimination was performed by specific immunoadsorption of Dynabeads beads (Dynal, Oslo, Norway) coated with monoclonal antibodies directed against the specific surface antigens CD2 and CD19 (lymphocytes) and CD14 (monocytes), according to the manufacturer's instructions. In this way, cell suspensions containing more than 95% AML blasts were obtained.
as §1
Differentiation was detected by analysing 3 criteria: 1) the ability to produce an oxidation-reduction reaction in response to a phorbol ester: this oxidation-reduction reaction is detected with nitroblue tetrazolium NBT reduction, 2) the expression of specific antibodies for differentiation (specific CD14 for monocytes, and specific CD15 for granulocytes), and 3) specific cytological modifications. All these criteria are specific to normal differentiate granulocyte or monocyte cells.

[8] = test system: AML blasts; assay: Cytological study (May-Grünwald-Giemsa staining)
Description: as §1
The cell smears, prepared in triplicate, were stained by May-Grünwald-Giemsa staining and their cytology was examined under an optical microscope.

[9] = Total number, 35 cases analysed

CC1=C(/C=C/C(C)=C/C=C/C(C)=C/C(=O)O)C(C)(C)CCC1 [RA, all-transretinoic acid, reference compound]
% NBT^+ cells (extreme values) ([1]; M3 (AML3) blasts): (RA: 47-90) %

O=c1c(-c2ccc(O)cc2)coc2cc(O)cc(O)c12 [genistein]
cell viability [2]: greater than 95%
effect on AML3 and AML5 differentiation induced by CD44 (HA treatment) [3]: inhibits this differentiation

hyaluronic acid [HA]
% NBT^+ cells, median value ([1]; AML1/2, 5 out of 7 cases): 22%
% NBT^+ cells in the cases as high as with all-transretinoic acid ([1]; AML3, 6 of the 12 responding cases): over 50%
% NBT^+ cells, median value ([1]; AML3, 12 out of 16 cases): 42%
% NBT^+ cells, median value ([1]; AML4): 55%
median % NBT^+ cells relative to controls ([1]; AML4): 3 times
% NBT^+ cells, median value ([1]; AML5, 6 out of 8 cases): 52%
% NBT^+ cells (extreme values) ([1]; M3 (AML3) blasts): 20%-80%
% NBT^+ cells (extreme values) ([1]; M4 (AML4) blasts): 43%-90%
% NBT^+ cells (extreme values) ([1]; M5 (AML5) blasts): 32%-70%
factor by which MFI values (CD14, CD15) multiplied ([4]; AML1/2): around 2
cases in which expression of both CD14 and CD15 increased ([4]; AML1/2, of the 8 cases): 6
increase of CD15 MFI values ([4]; AML3): approximately 3 fold
cases in which maturation was as marked as after all-transretinoic acid ([4]; AML3, of the 12 cases): 8
cases in which maturation was as marked as after all-transretinoic acid, % ([4]; AML3, of the 12 cases): 66%
number of samples in which the % of CD15^+ cells increased ([4]; AML3, out of 16 samples): 12
factor by which % of CD14 and CD15 positive cells multiplied ([4]; AML4): 2
factor by which MFI values (CD14, CD15) multiplied ([4]; AML4): 3
dose up to which differentiation intensity (CD14 MFI) is related to the dose ([4]; AML5 blasts, HA-12 (FIG. 3A)): up to 15 μg/ml
% CD15+ cells (extreme values) ([4]; M1/M2 (AML1/2) blasts): 22-100%
% CD15+ cells (extreme values) ([4]; M3 (AML3) blasts): 42-90%
% CD15^− cells median values ([4]; M3 (AML3) blasts): 78%
CD14 MFI value ([4]; one AML5 sample with CD14 in negative controls (102 in the negative controls)): up to 340 arbitrary units
induction of intracellular tyrosine phosphorylations [5]: already induced after one minute of treatment
cases with M-CSF transcripts detected ([6]; M1/M2 AML): 1
cases with M-CSF transcript detected ([6]; M5 AML): 1
Number of cases of differentiation ([7]; AML1/2, 7 cases analysed, 20 μg/ml HA, 5 days): 5/7 and 5
Number of cases of differentiation ([7]; AML3, 16 cases analysed, 20 μg/ml HA, 5 days): 12/16 and 12
Number of cases of differentiation ([7]; AML4, 4 cases analysed, 20 μg/ml HA, 5 days): 3/4 and 3
Number of cases of differentiation ([7]; AML5, 8 cases analysed, 20 μg/ml HA, 5 days): 6/8 and 6
Number of cases of differentiation [7, 9]: 26
Number of cases of differentiation, as % of cases analysed [7, 9]: 74%
cases of AML in which it was not possible to induce differentiation ([7]; all AML patients (36)): 9/36
cytological change after treatment ([8]; AML1/2 blasts): No cytological change was observed
cytological characteristics after treatment ([8]; AML3 blasts, 5 days): a segmented nucleus, a low nucleo-cytoplasmic ratio, rare nucleoles, some azurophilic granulations
cytological characteristics after treatment ([8]; AML5 blasts): a decrease in the nucleus/cytoplasm ratio, a decrease in the number of nucleoles, chromatin condensation, and irregular cytoplasmic contours

Reference: patent US20040204384A1, “Methods for regulating hematopoietic cell differentiation with polymers containing disaccharide units” (Institut National De La Sante Et De La Recherche Medial …, priority 1999, published 2004)
